Experiments:
[1] = test system: GAL4 DBD-CfEcR(DEF)/VP16AD-MmRXRE; details: CHO 13B3 clone, 48 h, average of two wells
In short: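 CHO 13B3 clone stably expressing GAL4 DBD-CfEcR(DEF) and VP16AD-MmRXRE with GAL4 RE-luciferase reporter; ligands from DMSO stocks diluted 300-fold. Luciferase read 48 h after treatment; duplicate wells averaged, fold induction = RLU ligand-treated / RLU DMSO-treated.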

DmEcR + LmUSP = target: T1, DmEcR + LmUSP (Drosophila melanogaster, UniProt P34021); details: DmEcR + LmUSP in 3T3 cells, reporter assayed 48 h after ligand
T1 sequence (P34021 342-878): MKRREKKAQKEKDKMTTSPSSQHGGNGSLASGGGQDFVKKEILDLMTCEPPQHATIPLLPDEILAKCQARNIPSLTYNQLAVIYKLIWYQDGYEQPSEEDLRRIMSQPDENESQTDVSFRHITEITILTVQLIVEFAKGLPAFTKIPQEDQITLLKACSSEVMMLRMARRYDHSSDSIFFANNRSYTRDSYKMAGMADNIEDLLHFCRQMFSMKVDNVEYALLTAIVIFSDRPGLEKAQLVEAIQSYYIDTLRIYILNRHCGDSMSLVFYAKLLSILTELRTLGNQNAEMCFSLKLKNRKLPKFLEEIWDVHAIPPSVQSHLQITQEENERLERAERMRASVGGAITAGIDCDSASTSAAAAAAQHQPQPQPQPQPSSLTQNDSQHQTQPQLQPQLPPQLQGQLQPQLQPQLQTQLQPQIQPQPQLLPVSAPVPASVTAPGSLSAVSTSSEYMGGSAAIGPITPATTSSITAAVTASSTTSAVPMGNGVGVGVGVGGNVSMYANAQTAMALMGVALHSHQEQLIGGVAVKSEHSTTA
Method: (§1) To determine if any of the compounds shown in Table 1 and Table 2 can act as inducers of reporter gene activity in a transactivation assay, these compounds were tested in NIH3T3 cells transfected with pFRLUC reporter and gene expression cassettes, 1.1 to 1.8 described in Example 1. […] At 48 hr after adding ligand, the cells were harvested and reporter activity was assayed using Dual Luciferase assay kit (Promega carporation). Total relative light units (RLU) are shown. Standard methods for culture and maintenance of the cells were followed.
(§2) Transfections: DNAs corresponding to the various switch constructs outlined in Example I, specifically switches 1.1 through 1.8, were transfected into mouse NIH3T3 cells (ATCC) as follows. Cells were harvested when they reached 50% confluency and plated in 6-, 12- or 24-well plates at 125,000, 50,000, or 25,000 cells, respectively, in 2.5, 1.0, or 0.5 ml of growth medium containing 10% fetal bovine serum (FBS), respectively. The next day, the cells were rinsed with growth medium and transfected for four hours. […] For 12-well plates, 4 μl of Superfect™ was mixed with 100 μl of growth medium. 1.0 μg of reporter construct and 0.25 μg of each receptor construct of the receptor pair to be analyzed were added to the transfection mix. A second reporter construct was added [pTKRL (Promega), 0.1 μg/transfection mix] that comprises a Renilla luciferase gene operably linked and placed under the control of a thymidine kinase (TK) constitutive promoter and was used for normalization. The contents of the transfection mix were mixed in a vortex mixer and let stand at room temperature for 30 min. At the end of incubation, the transfection mix was added to the cells maintained in 400 μl growth medium. The cells were maintained at 37° C. and 5% CO2 for four hours. At the end of incubation, 500 μl of growth medium containing 20% FBS and either dimethylsulfoxide (DMSO; control) or a DMSO solution of 0.1, 1, and 10 μM ligand was added and the cells were maintained at 37° C. and 5% CO2 for 48 hours. The cells were harvested and reporter activity was assayed. The same procedure was followed for 6 and 24 well plates as well except all the reagents were doubled for 6 well plates and reduced to half for 24-well plates.
(§3) Ligands: All ligands were dissolved in DMSO and the final concentration of DMSO was maintained at 0.1% in both controls and treatments.
(§4) Reporter Assays: Cells were harvested 48 hours after adding ligands. 125, 250, or 500 μl of passive lysis buffer (part of Dual-luciferase™ reporter assay system from Promega Corporation) were added to each well of 24- or 12- or 6-well plates respectively. The plates were placed on a rotary shaker for 15 minutes. Twenty μl of lysate were assayed. Luciferase activity was measured using Dual-luciferase™ reporter assay system from Promega Corporation following the manufacturer's instructions.

CfEcR + LmUSP = CfEcR + LmUSP in 3T3 cells, reporter assayed 48 h after ligand
Method: 1.9—Gal4CfEcR-DEF/VP16LmRXR-EF: This construct was prepared in the same way as switch 1.1 except LmRXR-EF (SEQ ID NO: 18) was used in place of HsRXRβ-LmRXREF chimera.
as §1, §2, §3, §4

C[C@H]1C[C@H](Nc2ccc(F)cc2)c2cc(F)ccc2N1C(=O)c1ccc(F)c(C(F)(F)F)c1 (relative stereo) [Compound I-5]
Fold Induction Average, 13B3V1 Assay 33 μM [1]: 1 fold
Fold Induction (10 μM) (DmEcR + LmUSP; 10 μM): 8 fold
Fold Induction (100 μM) (DmEcR + LmUSP; 100 μM): 7 fold
Fold Induction (10 μM) (CfEcR + LmUSP): 69 fold

Reference: US20050228016A1, “TETRAHYDROQUINOLINES FOR MODULATING THE EXPRESSION OF EXOGENOUS GENES VIA AN ECDYSONE RECEPTOR COMPLEX” (priority 2002, published 2005)
